The record followed here is ChEMBL document CHEMBL1671624, “Efficacy of quinoxaline-2-carboxylate 1,4-di-N-oxide derivatives in experimental tuberculosis” (Antimicrob Agents Chemother, 2008).

Molecules are shown by their SMILES. In brackets after ≈: the same amount, converted by molar mass. Where only a bound is given, the exact number is not on record here.

Holding throughout (format): functional
Holding throughout (conditions): variant bovis BCG

Assay [1] has as its system Mycobacterium tuberculosis. In words: Antibacterial activity against Mycobacterium bovis BCG harboring moaA gene by microplate Alamar Blue assay.
The test system of assay [2] is Mycobacterium tuberculosis. In words: Antibacterial activity against Mycobacterium bovis BCG harboring fgd gene by microplate Alamar Blue assay.
In assay [3] the test system is Mycobacterium tuberculosis. As to the kind of experiment: Antibacterial activity against wild-type Mycobacterium bovis BCG by microplate Alamar Blue assay.
Assay [4] concerns Mycobacterium tuberculosis. As to the kind of experiment: Antibacterial activity against Mycobacterium bovis BCG harboring moaD gene by microplate Alamar Blue assay.
Assay [5] concerns Mycobacterium tuberculosis. As to the kind of experiment: Antibacterial activity against Mycobacterium bovis BCG harboring pil8 gene by microplate Alamar Blue assay.
Assay [6] has as its system Mycobacterium tuberculosis. In words: Antibacterial activity against Mycobacterium bovis BCG harboring fbiC gene by microplate Alamar Blue assay.

`CCOC(=O)c1c(C)[n+]([O-])c2ccc(Cl)cc2[n+]1[O-]`: the MIC was 0.38 µM (≈ 0.107 µg/mL) in assay [1]; 0.5 µM (≈ 0.141 µg/mL) in assay [2]; 0.5 µM (≈ 0.141 µg/mL) in assay [3]; 0.55 µM (≈ 0.155 µg/mL) in assay [4]; 0.72 µM (≈ 0.204 µg/mL) in assay [5]; 0.71 µM (≈ 0.201 µg/mL) in assay [6].

For `O=C(Nc1ccc([N+](=O)[O-])cc1Cl)c1cc(Cl)ccc1O` [NICLOSAMIDE], the MIC in assay [1] turned out to be 1.86 µM (≈ 0.608 µg/mL); in assay [2], 1.61 µM (≈ 0.527 µg/mL); in assay [3], 3.13 µM (≈ 1.02 µg/mL); in assay [4] it was 1.9 µM (≈ 0.622 µg/mL); in assay [5], 1.87 µM (≈ 0.612 µg/mL); in assay [6], 1.57 µM (≈ 0.514 µg/mL).

Turning to `O=[N+]([O-])c1cn2c(n1)OC[C@@H](OCc1ccc(OC(F)(F)F)cc1)C2` [PRETOMANID], the MIC in assay [1] is > 128 µM; in assay [2] it was > 128 µM; in assay [3] it was 0.12 µM (≈ 0.0431 µg/mL); in assay [4] it was > 128 µM; in assay [5], > 128 µM; in assay [6], > 128 µM.
